Measurements taken from PMC12298883, “Discovery of Cyclopentane-Based Phospholipids as Miltefosine Analogs with Superior Potency and Enhanced Selectivity Against Naegleria fowleri” (Pharmaceuticals, 2025).

Legend:
N. fowleri trophozoites = assay: Anti-amoebic viability assay (CellTiter-Blue) with microscopic observation; assay type: cell-based, Naegleria fowleri; conditions: for Selectivity Index: CC50 of C6 glial cell divided by IC50 of inhibition of N. fowleri; for Relative Potency to Miltefosine: IC50 of miltefosine divided by IC50 of compound, N. fowleri; for IC50: Naegleria fowleri, 48 h, N. fowleri trophozoites, viability, mean ± SD of three assays, read-out: IC50 of Inhibition of N. fowleri; for fold increase in potency of anti-amoebic activity relative to corresponding cis-configured derivative: trans vs cis 1,2-restricted derivative with same alkyl chain
Protocol: (§1) A viability assay was performed to evaluate the inhibitory activity of the tested compounds by determining their IC50 values against N. fowleri, using miltefosine as a reference drug. To assess the selectivity of the tested compounds relative to miltefosine, cytotoxic values that reduced the viability of C6 glial cells by 50% were established.
(§2) N. fowleri Carter NF69 strain (ATCC 30215; American Type Culture Collection, Manassas, VA, USA) was used. Amoeba trophozoites were cultured and maintained in Nelson’s medium containing 5% foetal bovine serum (FBS; Gibco, Grand Island, NY, USA) and 1% penicillin/streptomycin (P/S; Gibco, Grand Island, NY, USA) at 37 °C [56]. C6 rat glial cells (C6 cells; ATCC CCL-107) were cultured in Dulbecco’s Modified Eagle’s Medium (DMEM; Gibco, Grand Island, NY, USA) supplemented with 10% FBS (Gibco, Grand Island, NY, USA) and 1% P/S (Gibco, Grand Island, NY, USA) at 37 °C in a humidified incubator under 5% CO2 atmosphere.
N. fowleri trophozoites (5 × 10^4 cells/well) were seeded in a 96-well microplate (Thermo Fisher Scientific, Waltham, MA, USA) in Nelson’s medium and incubated at 37 °C overnight. N. fowleri trophozoites were treated with 2-fold serial dilutions of tested compounds (from 0 to 200 µM) or miltefosine (150 µM) and incubated at 37 °C for 48 h. The viability of the amoebae was determined using the CellTiter-Blue® Cell viability assay (Promega, Madison, WI, USA). Inhibitory concentration 50 (IC50) and IC90 were calculated by the nonlinear regression method using GraphPad Prism 9.1.0 software (GraphPad Software, San Diego, CA, USA). Amoebae treated with 0.1% DMSO were used as a control, representing 100% cell viability. Morphological changes of the amoebae were observed microscopically.

[1] = Cytotoxicity assay for C6 cells (CellTiter-Blue); assay type: cell-based; conditions: rat, C6 glial cells, viability, mean ± SD
Protocol: as §1, §2
The potential cytotoxicity of tested compounds and miltefosine in C6 cells was analysed. The cells were seeded in a 96-well microplate (Thermo Fisher Scientific; 2 × 10^4 cells/well), respectively, and incubated overnight until 80% confluent. Serially diluted tested compounds and miltefosine were treated to the cells as described above. Morphological changes of the cells were observed by microscopic examination. Cell viability was determined using the CellTiter-Blue® Cell viability assay (Promega, […], USA). The cytotoxic concentrations 50 (CC50) of tested compounds and miltefosine were calculated using GraphPad Prism 9.1.0 software (GraphPad Software, San Diego, CA, USA). The […] (SI) was determined by the ratio between CC50 and IC50. Cells treated with 0.1% DMSO, which was confirmed not to alter the morphology of the cells by microscopic examination, were used as controls with 100% cell viability.

SMILES	Selectivity Index (N. fowleri trophozoites)	Relative Potency to Miltefosine (N. fowleri trophozoites)	IC50 (N. fowleri trophozoites)	CC50 [1]	fold increase in potency of anti-amoebic activity relative to corresponding cis-configured derivative (N. fowleri trophozoites)
CCCCCCCCCCCCCCCCCCOC[C@@H]1CCC[C@H]1OP(=O)([O-])OCC[N+](C)(C)C [Compound 3c]	0.77	1.92 fold	76.3 ± 1.56 µM	58.5 ± 2.08 µM	–
CCCCCCCCCCCCOC[C@@H]1CCC[C@H]1OP(=O)([O-])OCC[N+](C)(C)C [Compound 3a]	>1.43	0.52 fold	279.4 ± 0.94 µM	> 400 µM	–
CCCCCCCCCCCCO[C@H]1CCC[C@H]1COP(=O)([O-])OCC[N+](C)(C)C [Compound 1a]	>2.47	~0.90 fold	162 ± 1.02 µM	> 400 µM	–
CCCCCCCCCCCCCO[C@H]1CCC[C@H]1COP(=O)([O-])OCC[N+](C)(C)C [Compound 1b]	2.69	3.74 fold	39.1 ± 0.6 µM	105 ± 4.76 µM	–
CCCCCCCCCCCCCCCCCCCCO[C@H]1CCC[C@H]1COP(=O)([O-])OCC[N+](C)(C)C [Compound 1d]	1.59	3.4 fold	43.6 ± 1.02 µM	69.49 ± 0.16 µM	–
CCCCCCCCCCCCCCCCCCO[C@H]1CCC[C@H]1COP(=O)([O-])OCC[N+](C)(C)C [Compound 1c]	2.18	2.01 fold	72.7 ± 2.32 µM	158.4 ± 0.71 µM	–
CCCCCCCCCCCCCCCCCCCCCCO[C@@H]1CCC[C@H]1COP(=O)([O-])OCC[N+](C)(C)C [Compound 2d]	1.28	2.63 fold	55.6 ± 3.32 µM	71.03 ± 0.61 µM	2.98 fold
CCCCCCCCCCCCCCCCCCCCO[C@@H]1CCC[C@H]1COP(=O)([O-])OCC[N+](C)(C)C [Compound 2c]	2.19	7.46 fold	19.6 ± 0.44 µM	43 ± 8.37 µM	2.19- to 3.07 fold
CCCCCCCCCCCCCCCCCCCCCCO[C@H]1CCC[C@H]1COP(=O)([O-])OCC[N+](C)(C)C [Compound 1e]	0.69	0.88 fold	166 ± 68 µM	114 ± 3.2 µM	–
CCCCCCCCCCCCCCCCCCO[C@@H]1CCC[C@H]1COP(=O)([O-])OCC[N+](C)(C)C [Compound 2b]	2.94	6.18 fold	23.7 ± 0.5 µM	69.71 ± 0.04 µM	2.19- to 3.07 fold
